Results as given in the NIST ThermoML archive (doi:10.1021/je800664z).

Experiment: refractive index (Na D-line) (dimensionless); xn = mol fraction of the nth substance listed
Conditions: 101 kPa, Liquid, Standard Abbe refractometry

C1COCO1 [1,3-dioxolane] + CC(C)CC(C)(C)C
refractive index
Conditions	288.15 K	298.15 K	308.15 K
x1 = 0.0501	1.39395	1.38898	1.38381
x1 = 0.1	1.39385	1.38885	1.38367
x1 = 0.15	1.39377	1.38876	1.38361
x1 = 0.2	1.39374	1.38876	1.3836
x1 = 0.25	1.39378	1.38883	1.3837
x1 = 0.3	1.39389	1.38897	1.38387
x1 = 0.35	1.39411	1.3892	1.3841
x1 = 0.4	1.3944	1.38948	1.3844
x1 = 0.45	1.39473	1.38982	1.38476
x1 = 0.5	1.39512	1.39022	1.38517
x1 = 0.55	1.39558	1.39068	1.38563
x1 = 0.6	1.3961	1.3912	1.38614
x1 = 0.65	1.39668	1.39178	1.38672
x1 = 0.7	1.39734	1.39243	1.38739
x1 = 0.75	1.39807	1.39318	1.38814
x1 = 0.8	1.39883	1.39399	1.38895
x1 = 0.85	1.39966	1.39487	1.38987
x1 = 0.9	1.40055	1.39581	1.3909
x1 = 0.95	1.40152	1.39683	1.39199
x1 = 1	1.40252	1.39795	1.39322

C1COCO1 [1,3-dioxolane] + CC(C)O
refractive index
Conditions	288.15 K	298.15 K	308.15 K
x1 = 0.05	1.38037	1.37601	1.37126
x1 = 0.1	1.38139	1.37686	1.37207
x1 = 0.15	1.38242	1.37776	1.37295
x1 = 0.2	1.38343	1.37869	1.37388
x1 = 0.25	1.38447	1.37966	1.37483
x1 = 0.3001	1.3855	1.38065	1.37579
x1 = 0.35	1.38655	1.38168	1.3768
x1 = 0.4	1.38763	1.38274	1.37785
x1 = 0.45	1.38875	1.38384	1.37894
x1 = 0.5	1.3899	1.38496	1.38006
x1 = 0.55	1.39107	1.38611	1.38121
x1 = 0.6	1.39227	1.38729	1.38238
x1 = 0.65	1.39348	1.3885	1.38359
x1 = 0.7001	1.39473	1.38975	1.38483
x1 = 0.75	1.396	1.39103	1.38608
x1 = 0.8	1.39731	1.39234	1.38737
x1 = 0.85	1.39862	1.39368	1.38872
x1 = 0.9	1.39993	1.39509	1.39013
x1 = 0.95	1.40123	1.39653	1.39165
x1 = 1	1.40252	1.39795	1.39322
